Data on 12 molecules can be found in patent US8188091B2, “Tetrahydroquinazoline compounds and their use in preparing medicaments for treating and preventing virosis” (Beijing Molecule Science and Technology Co., Ltd., priority 2007, dated 2012).

Read-outs that look alike come from different tables or passages of the source.

The nature of series [1]: Determination of the cytotoxicity in HepG 2.2.15 cells (microscopy, Reed & Muench). Format: cell-based. The following applies: human, pathological changes at 8 days, read-out: TC50 (half-maximum toxic concentration). As to the method:
(§1) The antiviral assays were carried out in 96-well microtitre plates. Only growth medium and HepG 2.2.15 cells were added to the first vertical row of the plate, as a blank control.
(§2) Stock solutions of the test compounds (50 mM) were initially dissolved in DMSO, and further dilutions were prepared in the growth medium of HepG 2.2.15 cell. The compounds according to the present invention, usually in a test concentration of 100 μg/ml (1st test concentration), were pipetted into each well in the second vertical test row of the microtitre plate and subsequently diluted by 2 times each time, up to 2^10-fold, using the growth medium plus 2% of foetal calf serum (volume 25 p. 1).
(§3) 225 μl of a HepG 2.2.15 cell suspension (5×10^4 cells/ml) in the growth medium plus 2% foetal calf serum were then added to each well of the microtitre plate.
(§4) The assay mixture was incubated at 37° C., 5% CO2 for 4 days. The supernatant was subsequently siphoned off and discarded, and 225 μl of freshly prepared growth medium were added to each well. Once more, the compounds according to the present invention were added, in a volume 25 μl of solution. The mixtures were incubated for another 4 days.
Before the supernatants were harvested for determining the antiviral effect, the HepG 2.2.15 cells were examined by an optical microscopy or by biochemical detecting methods (for example Alamar Blue staining or Trypan Blue staining) for cytotoxic changes.
Determination of the Cytotoxicity
Substances-induced cytotoxic or cytostatic changes in the HepG 2.2.15 cells can be determined by for example a optical microscopy and expressed as changes in the cell morphology. Such substance-induced changes, for example, as cell lysis, vacuolization or changed cell morphology in the HepG 2.2.15 cells was apparent in comparison with those in untreated cells. The pathological changes were observed under a microscope at 8 days as indice, wherein a complete destroy being designated as 4, 75% as 3, 50% as 2, 25% as 1, and no pathological change as 0. The average degree of pathological change and inhibition percentages at various concentrations were calculated, and a half-maximum toxic concentration (TC50) and a maximum non-toxic concentration TC0 were determined according to Reed & Muench methods.
TC50 means the concentration of the compounds according to the present invention at which 50% of the cells have a morphology which is similar to that of the corresponding cell control.

In a further series the test system is HBV DNA. Put plainly: Antiviral activity: inhibition of HBV DNA in supernatant of HepG 2.2.15 cells (dot blot hybridization). Format: cell-based, hepatitis B virus (HBV). The following applies: for IC50: Hepatitis B virus, HepG2.2.15, 192 h, read-out: IC50 (inhibition of the compounds on HBV DNA); for SI: selectivity index, TC50/IC50, HepG 2.2.15 cells. As to the method:
The antiviral effects of the compounds according to the present invention was determined following the methods described by Sells et al. (M. A. Sells, M. L. Chen, g. Acs, Proc. Natl. Acad. Sci., 1987, 84, 1005-1009) and Korba et al., (B. E. Korba, J. L. Gerin, Antiviral Research, 1992, 19. 55-70).
as §1, §2, §3, §4
The supernatants were subsequently harvested and siphoned onto in vacuum 96-well dot blot chambers covered with a nylon membrane (in accordance with the instructions of the manufacturer).
Determination of the Antiviral Activity
After transfer of the supernatants onto the nylon membrane of the blot apparatus (see above), the supernatants of the HepG 2.2.15 cells were denatured (1.5 M NaCl/0.5 M NaOH), neutralized (3 M […]/0.5 M Tris HCl, pH 7.5) and washed (2×SSC). The DNA was subsequently baked onto the membrane By incubation of the filters at 120° C. for 2-4 hours.
The viral DNA of the treated HepG 2.2.15 cells on the nylon filter membrane was usually detected using non-radioactive digoxigenin-labelled hepatitis B-specific DNA probes, which were in each case labelled with digoxigenin, purified and used for hybridization in accordance with the instructions of the manufacturer.
Briefly speaking, the prehybridization and hybridization were carried out in 5×SSC, 1× a blocking agent, 0.1% N-lauroylsacosine, 0.02% SDS and 100 μg of DNA from herring sperm. The prehybridization was carried out at 60° C. for 30 minutes and the specific hybridization was carried out using 20 to 40 ng/ml of the digoxigenated denatured HBV-specific DNA (14 hours, 60° C.). The filler membrane was subsequently washed and the antibody against digoxigenin of HBV DNA was determined.
The digoxigenin-labelled DNA was detected immunologically in accordance with the instructions of the manufacturer.
Briefly speaking, the filler membranes were washed and prehybridized in the blocking agent (in accordance with the instructions of the manufacturer), and then hybridized for 30 minutes using an anti-DIG antibody previously coupled to an alkaline phosphatase. After washing, a substrate of alkaline phosphoesterase, CSPD, was added, incubated with the filter for 5 minutes, subsequently wrapped in a plastic film and incubated at 37° C. for a further 15 minutes. The chemiluminescene signals of the Hepatitis B-specific DNA were measured by exposition of the filters on an X-ray film (incubating for 10 minutes to 2 hours, depending on strength of the signals). The half-maximum inhibitory concentration (IC50) was determined.
The half-maximum inhibitory concentration (IC50) means the concentration of the compound according to the present invention at which the hepatitis B-specific band was reduced by 50% in comparison with an untreated sample.

The nature of series [2]: Solubility of the hydrochloride solid in solvents. Format: physicochemical. As to the method: 0.38 g of the object compound obtained in Example 1 was dissolved in 2 ml anhydrous ethanol, to which hydrogen chloride ethyl solution was added dropwise to precipitate a solid, and filtered to obtain an off-white powdery solid 0.41 g, mp 197-199° C.
[3] abbreviates: HepG 2.2.15 cells, 8 days treatment.

Consider `CC1(C)CC(=O)C2=C(C1)NC(c1cccnc1)=NC2c1ccc(F)cc1Cl` (stereo not shown) [Example 1, 2-(pyridin-3-yl)-4-(2-chloro-4-fluorophenyl)-7,7-dimethyl-4,6,7,8-tetrahydroquinazolin-5(1H)-one], for which the melting point fell in the range of 186 to 187 °C. In addition, the CC50 at 8 days in series [1] turned out to be 109 µM. In addition, in the series with HBV DNA (setting [3]), the half-inhibitory concentration (IC50) turned out to be 0.026 µM. For the same molecule, the SI in the series on HBV DNA stood at 4192.

As for `O=C1CCCC2=C1C(c1ccccc1Cl)N=C(c1cccnc1)N2` (stereo not shown) [Example 9, 2-(pyridin-3-yl)-4-(2-chlorophenyl)-4,6,7,8-tetrahydroquinazolin-5(1H)-one], the CC50 at 8 days in series [1] turned out to be 167 µM. Moreover, in the series with HBV DNA (setting [3]), the IC50 is > 29.6 µM. Moreover, the SI with HBV DNA is on record as <5.6.

On to `O=C1CCCC2=C1C(c1ccc(F)cc1Cl)N=C(c1c(F)cc(F)cc1F)N2` (stereo not shown) [Example 10, 2-(2,4,6-trifluorophenyl)-4-(2-chloro-4-fluorophenyl)-4,6,7,8-tetrahydroquinazolin-5(1H)-one], for which the CC50 at 8 days in series [1] was found to be 94.1 µM. Besides, the IC50 with HBV DNA (setting [3]) is > 24.4 µM. Also, in the series with HBV DNA, the SI is <3.8.

Regarding `CC1(C)CC(=O)C2=C(C1)NC(c1cccnc1)=NC2c1ccccc1` (stereo not shown) [Example 5, 2-(pyridin-3-yl)-4-phenyl-7,7-dimethyl-4,6,7,8-tetrahydroquinazolin-5(1H)-one], the CC50 at 8 days in series [1] is 173 µM. The concentration for half-maximal inhibition (IC50) in the series on HBV DNA (setting [3]) came out at 22.5 µM. The same molecule registered an SI in the series on HBV DNA of 7.70.

As for `O=C1CCCC2=C1C(c1ccccc1)N=C(c1cccnc1)N2` (stereo not shown) [Example 6, 2-(pyridin-3-yl)-4-phenyl-4,6,7,8-tetrahydroquinazolin-5(1H)-one], the CC50 at 8 days in series [1] is 193 µM. For the same molecule, in the series with HBV DNA, the concentration for half-maximal inhibition (IC50) was > 32.9 µM and the SI is given as <4.7.

For the molecule `CC1(C)CC(=O)C2=C(C1)NC(c1cccnc1)=NC2c1ccc(F)cc1` (stereo not shown) [Example 4, 2-(pyridin-3-yl)-4-(4-fluorophenyl)-7,7-dimethyl-4,6,7,8-tetrahydroquinazolin-5(1H)-one], the CC50 at 8 days in series [1] was 145 µM. Further, in the series on HBV DNA (setting [3]), the IC50 came out at 25.3 µM. The molecule also registered an SI in the series with HBV DNA of 5.73.

Regarding `CC1(C)CC(=O)C2=C(C1)NC(c1c(F)cc(F)cc1F)=NC2c1ccc(F)cc1Cl` (stereo not shown) [Example 11, 2-(2,4,6-trifluorophenyl)-4-(2-chloro-4-fluorophenyl)-7,7-dimethyl-4,6,7,8-tetrahydroquinazolin-5(1H)-one], the CC50 at 8 days in series [1] was found to be 73.7 µM. In addition, in the series with HBV DNA (setting [3]), the concentration for half-maximal inhibition (IC50) is > 22.9 µM. For the same molecule, the SI in the series with HBV DNA is <3.2.

Take `O=C1CCCC2=C1C(c1ccc(F)cc1Cl)N=C(c1cccnc1)N2` (stereo not shown) [Example 3, 2-(pyridin-3-yl)-4-(2-chloro-4-fluorophenyl)-4,6,7,8-tetrahydroquinazolin-5(1H)-one]: in series [1], the CC50 at 8 days amounted to 233 µM. For the same molecule, the half-inhibitory concentration (IC50) in the series with HBV DNA (setting [3]) came to 25.2 µM. The molecule further came in with an SI in the series with HBV DNA of 9.25.

For the molecule `CC1(C)CC(=O)C2=C(C1)NC(c1ccccn1)=NC2c1ccc(F)cc1Cl` (stereo not shown) [Example 12, 2-(pyridin-2-yl)-4-(2-chloro-4-fluorophenyl)-7,7-dimethyl-4,6,7,8-tetrahydroquinazolin-5(1H)-one], in series [1], the CC50 at 8 days worked out at 97 µM. Besides, the IC50 in the series with HBV DNA (setting [3]) is > 26 µM. Moreover, the SI with HBV DNA is listed as <3.7.

For the molecule `CC1(C)CC(=O)C2=C(C1)NC(c1cccnc1)=NC2c1ccccc1Cl` (stereo not shown) [Example 7, 2-(pyridin-3-yl)-4-(2-chlorophenyl)-7,7-dimethyl-4,6,7,8-tetrahydroquinazolin-5(1H)-one], in series [1], the CC50 at 8 days stood at 67.3 µM. In the series with HBV DNA (setting [3]), the IC50 was 26.2 µM. In the series on HBV DNA, this molecule yielded an SI of 2.57.

Consider `CC1(C)CC(=O)C2=C(C1)NC(c1cccnc1)=NC2c1ccc(F)cc1Cl.Cl` (stereo not shown) [Example 2, 2-(pyridin-3-yl)-4-(2-chloro-4-fluorophenyl)-7,7-dimethyl-4,6,7,8-tetrahydroquinazolin-5(1H)-one hydrochloride], for which the “solubility in dichloromethane, ethyl acetate, acetone, etc.” value in series [2] (dichloromethane, ethyl acetate, acetone, etc.) is “insoluble”. In addition, the “solubility in methanol and ethanol” value in series [2] (methanol and ethanol) is given as “soluble slightly”. The solubility in water entry in series [2] (water) is given as “very easily soluable”.

Take `O=C1CCCC2=C1C(c1ccc(F)cc1)N=C(c1cccnc1)N2` (stereo not shown) [Example 8, 2-(pyridin-3-yl)-4-(4-fluorophenyl)-4,6,7,8-tetrahydroquinazolin-5(1H)-one]: in series [1], the CC50 at 8 days is 148 µM. Besides, in the series on HBV DNA (setting [3]), the IC50 was > 31.1 µM. Also, the SI in the series with HBV DNA was <4.7.

Usually melting point stands for the temperature of the solid-liquid transition. Broadly, the IC50 is the concentration at which inhibition is half-maximal.
